The subject of data set [1] is Orobanche cumana Wallr. seeds. As to the kind of experiment: Orobanche cumana seed germination test on glass fiber filter paper in petri dishes. In kind it is in vivo. The conditions noted are these: preconditioned Orobanche cumana seeds, N = 5 × 100 seeds. The procedure:
The effect of compounds of Formula (I) on germination of Orobanche cumana Wallr. seeds was evaluated on glass fiber filter paper (GFFP) in petri dishes. Seeds were preconditioned at moisture and suitable temperature to become responsive to the specific chemical germination stimulants.
Test compounds were dissolved in DMSO (10,000 mg/L) and stored at room temperature in a desiccators with desiccants. The stock solutions were dissolved with deionised water to the appropriate final test concentration.
Seeds of O. cumana race ‘F’ were collected from sunflower fields in Manzanilla (Seville, Spain) in 2008 (seed lot IN153) and stored at room temperature. To separate seeds from heavy organic debris, a modified sucrose floatation technique as described by Hartman & Tanimonure (Plant Disease (1991), 75, p. 494) was applied. Seeds were filled into a separation funnel and stirred in water. When seeds floated to the surface, the water fraction containing heavy debris was discarded. Seeds were re-suspended in 2.5 M sucrose solution (specific gravity of 1.20) and heavy debris was allowed to settle down for 60 min. After removing debris, seeds were disinfected in 1% sodium hypochlorite solution and 0.025% (v/v) Tween 20 for 2 min. The seeds were decanted onto two layers of cheesecloth, rinsed with sterile deionised water and re-suspended in sterile deionised water. 2 mL of the seed suspension containing approximately 150-400 seeds was spread evenly on two layers of sterile glass fiber filter paper disc ([…]) in Petri dishes (Ø9 cm). After wetting the discs with 3 mL sterile deionised water, petri dishes were sealed with parafilm. Seeds were incubated for 10 days at 20° C. in the dark for seed conditioning. The upper disc with conditioned seeds was briefly dried, transferred to a petri dish lined with a dry GFFP disc, and wetted with 6 mL of the appropriate test solution. The compounds of Formula (I) were tested at concentrations of 0.01, 0.1, and 1 mg/L. The strigolactone analogue GR24 (commercially available as a mixture of isomers) was included as positive control and 0.01% DMSO as negative control. All treatments were tested in five replicates. Seeds were re-incubated at 20° C. in the dark and examined for germination 10 days later. The radicles of germinated seeds were stained for 5 min with blue ink (PELIKAN #4001, Germany) in 5% acetic acid according to Long et al. (Seed Science Research (2008), 18, p. 125). After staining, seeds were photographed using a camera stand mounted with a digital SLR camera (Canon EOS 5D). Germination of 100 seeds per replicate was evaluated on digital images. Seeds were considered germinated when the radicle protruded from the seed coat.

Setting [2] is: concentration 0.01 mg/L, control (0.01% DMSO): 1.4% germination.
[3] abbreviates: concentration 0.1 mg/L, control (0.01% DMSO): 1.4% germination.
Where [4] appears, read: concentration 1 mg/L, control (0.01% DMSO): 1.4% germination.
Setting [5] is: 1 mg/L, control (0.01% DMSO): 0.75% germination.

Take `CC1=CC(O/C=C2/C(=O)OC3c4ccccc4CC23)OC1=O` (stereo not shown) [reference compound]: the “Germination (%)” value is recorded as 65% in data set [1] (setting [2]), 78.4% in data set [1] (setting [3]) and 86.6% in data set [1] (setting [4]).

As for `CON1C(=O)C(C)=CC1OC(=O)NCc1ccccc1` (stereo not shown) [Ia-3, (1-methoxy-4-methyl-5-oxo-2H-pyrrol-2-yl) N-benzylcarbamate], in data set [1] (setting [5]), the “Germination (%)” value was 44.8%.

As for `CC1=CC(OC(=O)NCc2ccccc2)N(C)C1=O` (stereo not shown) [drawing 24], the “Germination (%)” value is 60.8% in data set [1] (setting [2]), 67.4% in data set [1] (setting [3]) and 76.6% in data set [1] (setting [4]).

With `COCN1C(=O)C(C)=CC1OC(=O)NCc1ccccc1` (stereo not shown) [Ia-1, [1-(methoxymethyl)-4-methyl-5-oxo-2H-pyrrol-2-yl]N-benzylcarbamate], the “Germination (%)” value in data set [1] (setting [5]) worked out at 86.8%.

On to `CC1=CC(OC(=O)NCc2ccccc2)N(CC(F)(F)F)C1=O` (stereo not shown) [Ia-5, [4-methyl-5-oxo-1-(2,2,2-trifluoroethyl)-2H-pyrrol-2-yl]N-benzylcarbamate], for which the “Germination (%)” value in data set [1] (setting [5]) is given as 16.2%.

Take `CC1=CC(OC(=O)NCc2ccccc2)N(C2CC2)C1=O` (stereo not shown) [Ia-6, (1-cyclopropyl-4-methyl-5-oxo-2H-pyrrol-2-yl) N-benzylcarbamate]: in data set [1] (setting [5]), the “Germination (%)” value is given as 76.4%.

As to `CC1=CC(OC(=O)NCc2ccccc2)OC1=O` (stereo not shown) [reference compound], the “Germination (%)” value is 8.8% in data set [1] (setting [2]), 41.8% in data set [1] (setting [3]) and 82.6% in data set [1] (setting [4]).

`CC1=CC(OC(=O)NCc2ccccc2)N(C)C1=O` (stereo not shown) [Ia-2, (1,4-dimethyl-5-oxo-2H-pyrrol-2-yl) N-benzylcarbamate] returned a melting point of 106 °C. The “Germination (%)” value in data set [1] (setting [5]) is reported as 76.6%.

In turn, `C#CCN1C(=O)C(C)=CC1Oc1ccc(Br)cc1` (stereo not shown) had a melting point of 92 to 94 °C.

As a reminder, the melting point is the temperature, or range, at which the solid turns liquid.
